Source: patent publication US7872026B2, “Ligand activators of the RAR receptors and pharmaceutical/cosmetic applications thereof” (Galderma Research & Development, priority 2003, dated 2011)

How the values were obtained:
RAR alpha = target: T1, RAR alpha (Homo sapiens, UniProt P10276); assay: Transactivation test (Kd apparent), RAR alpha; format: cell-based; conditions: HeLa cells stably transfected with ERE-βGlob-Luc-SV-Neo reporter and RAR α ER-DBD-puro; luciferase; Schild regression vs reference antagonist; read-out: RAR alpha KD app
T1 sequence (P10276 183-417 limits assumed): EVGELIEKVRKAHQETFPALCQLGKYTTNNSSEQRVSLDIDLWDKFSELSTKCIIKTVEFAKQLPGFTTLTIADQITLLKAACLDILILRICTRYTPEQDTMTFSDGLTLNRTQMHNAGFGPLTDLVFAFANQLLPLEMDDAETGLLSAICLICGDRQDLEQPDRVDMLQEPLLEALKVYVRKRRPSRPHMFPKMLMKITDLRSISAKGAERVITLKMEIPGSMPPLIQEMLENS
Experimental: (§1) The compounds according to the invention have activating properties on RAR-type receptors. This RAR-receptor-activating activity is measured in a test of transactivation by means of the dissociation constant Kdapp (apparent).
(§2) The activation of receptors with an agonist (activator) in HeLa cells leads to the expression of a reporter gene, luciferase, which, in the presence of a substrate, generates light. The activation of the receptors may thus be measured by quantifying the luminescence produced after incubating the cells in the presence of a reference agonist. The activating products displace the agonist from its site, thus preventing activation of the receptor. The activity is measured by quantifying the decrease in light produced. This measurement makes it possible to determine the activating activity of the compounds according to the invention.
(§3) In this study, a constant is determined which represents the affinity of the molecule for the receptor. Since this value can fluctuate depending on the basal activity and the expression of the receptor, it is referred to as the Kd apparent (KdApp).
(§4) To determine this constant, the cells are brought into contact with a concentration of the test product and a concentration of the reference antagonist, 4-(5,5-dimethyl-8-p-tolyl-5,6-dihydro-2-naphthalen-2-ylethynyl)benzoic acid. Measurements are also taken for the total agonist (4-[2-(5,5,8,8-tetramethyl-5,6,7,8-tetrahydro-2-naphthyl)propenyl]benzoic acid) and inverse agonist, 4-{(E)-3-[4-(4-tert-butylphenyl)-5,5,8,8-tetramethyl-5,6,7,8-tetrahydro-2-naphthyl]-3-oxopropenyl}benzoic acid, controls.
(§5) These crossed curves make it possible to determine the AC50 values (concentration at which 50% activation is observed) for the reference ligand at various concentrations of test product. These AC50 values are used to calculate the Schild regression by plotting a straight line corresponding to the Schild equation (“Quantitation in Receptor Pharmacology” Terry P. Kenakin, Receptors and Channels, 2001, 7, 371-385).
(§6) In the case of an agonist, an AC50 value (concentration that gives 50% of the activity) is calculated by plotting the curve of the product at the concentration of the reference ligand that gives 80% activation.
(§7) The HeLa cell lines used are stable transfectants containing the plasmids ERE-βGlob-Luc-SV-Neo (reporter gene) and RAR (α, β, γ) ER-DBD-puro. These cells are inoculated into 96-well plates at a rate of 10,000 cells per well in 100 μl of DMEM medium without phenol red, and supplemented with 10% defatted calf serum. The plates are then incubated at 37° C. and 7% CO2 for 4 hours.
(§8) The various dilutions of the test products, of the reference ligand (4-(5,5-dimethyl-8-p-tolyl-5,6-dihydro-2-naphthalen-2-ylethynyl)benzoic acid), of the 100% control (100 nM 4-[2-(5,5,8,8-tetramethyl-5,6,7,8-tetrahydro-2-naphthyl)propenyl]benzoic acid) and of the 0% control (500 nM 4-{(E)-3-[4-(4-tert-butylphenyl)-5,5,8,8-tetramethyl-5,6,7,8-tetrahydro-2-naphthyl]-3-oxopropenyl}benzoic acid) are added at a rate of 5 μl per well. The plates are then incubated for 18 hours at 37° C. and 7% CO2.
(§9) The culture medium is removed by turning over and 100 μl of a 1:1 PBS/luciferin mixture is added to each well. After 5 minutes, the plates are read using the luminescence reader.

RAR beta = target: T2, RAR beta (Homo sapiens, UniProt P10826); assay: Transactivation test (Kd apparent), RAR beta; format: cell-based; conditions: HeLa cells stably transfected with ERE-βGlob-Luc-SV-Neo reporter and RAR β ER-DBD-puro; luciferase; Schild regression vs reference antagonist; read-out: RAR beta Kd app
T2 sequence (P10826 183-417 limits assumed): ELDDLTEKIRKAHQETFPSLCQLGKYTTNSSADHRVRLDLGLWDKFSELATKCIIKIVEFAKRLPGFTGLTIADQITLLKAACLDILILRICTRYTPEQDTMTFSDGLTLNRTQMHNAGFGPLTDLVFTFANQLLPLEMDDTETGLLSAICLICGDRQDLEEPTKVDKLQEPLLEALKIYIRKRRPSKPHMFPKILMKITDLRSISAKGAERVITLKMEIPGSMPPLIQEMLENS
Experimental: as §1, §2, §3, §4, §5, §6, §7, §8, §9

RAR gamma = target: T3, RAR gamma (Homo sapiens, UniProt P13631); assay: Transactivation test (Kd apparent), RAR gamma; format: cell-based; conditions: HeLa cells stably transfected with ERE-βGlob-Luc-SV-Neo reporter and RAR γ ER-DBD-puro; luciferase; Schild regression vs reference antagonist; read-out: RAR gamma Kd app
T3 sequence (P13631 185-454 limits assumed): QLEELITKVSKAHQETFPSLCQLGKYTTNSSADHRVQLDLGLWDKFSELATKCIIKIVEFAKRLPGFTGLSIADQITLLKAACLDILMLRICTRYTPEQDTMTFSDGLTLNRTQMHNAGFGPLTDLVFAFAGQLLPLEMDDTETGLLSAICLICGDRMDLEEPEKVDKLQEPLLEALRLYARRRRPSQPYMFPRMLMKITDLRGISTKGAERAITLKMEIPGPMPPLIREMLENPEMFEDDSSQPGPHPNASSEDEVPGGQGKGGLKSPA
Experimental: as §1, §2, §3, §4, §5, §6, §7, §8, §9

Row | Compound | Kd (RAR alpha) [nM] | Kd (RAR beta) [nM] | Kd (RAR gamma) [nM] | melting point [°C]
1 | CC(C)NCCCCOc1ccc(-c2ccc(C(=O)O)cc2)cc1-c1ccc2c(c1)C(C)(C)CCC2(C)C [Compound 1, 4′-(4-Isopropylaminobutoxy)-3′-(5,5,8,8-tetramethyl-5,6,7,8-tetrahydronaphth-2-yl)biphenyl-4-carboxylic acid] | 1000 | 500 | 15 | 
2 | CC(C)NCCOc1ccc(-c2ccc(C(=O)O)cc2)cc1-c1ccc2c(c1)C(C)(C)CCC2(C)C [Compound 12, 4′-(2-Isopropylaminoethoxy)-3′-(5,5,8,8-tetramethyl-5,6,7,8-tetrahydronaphth-2-yl)biphenyl-4-carboxylic acid] |  | 4000 | 120 | 
3 | CCOC(=O)c1ccc(-c2ccc(OCCCNC3CC3)c(-c3ccc4c(c3)C(C)(C)CCC4(C)C)c2)cc1 [Compound 50, Ethyl 4′-(3-cyclopropylaminopropoxy)-3′-(5,5,8,8-tetramethyl-5,6,7,8-tetrahydronaphth-2-yl)biphenyl-4-carboxylate] |  |  |  | 141
4 | CCCCNCCCOc1ccc(-c2ccc(C(=O)OCC)cc2)cc1-c1ccc2c(c1)C(C)(C)CCC2(C)C [Compound 52, Ethyl 4′-(3-butylaminopropoxy)-3′-(5,5,8,8-tetramethyl-5,6,7,8-tetrahydronaphth-2-yl)biphenyl-4-carboxylate] |  |  |  | 175
5 | CCCNCCCOc1ccc(-c2ccc(C(=O)OCC)cc2)cc1-c1ccc2c(c1)C(C)(C)CCC2(C)C [Compound 56, Ethyl 4′-(3-propylaminopropoxy)-3′-(5,5,8,8-tetramethyl-5,6,7,8-tetrahydronaphth-2-yl)biphenyl-4-carboxylate] |  |  |  | 120
6 | CC1(C)CCC(C)(C)c2cc(-c3cc(-c4ccc(C(=O)O)cc4)ccc3OCCCCNC3CC3)ccc21 [Compound 59, 4′-(4-Cyclopropylaminobutoxy)-3′-(5,5,8,8-tetramethyl-5,6,7,8-tetrahydronaphth-2-yl)biphenyl-4-carboxylic acid] | 8000 | 4000 | 1000 | 
7 | CCOC(=O)c1ccc(-c2ccc(OCCCNC)c(-c3ccc4c(c3)C(C)(C)CCC4(C)C)c2)cc1 [Compound 60, Ethyl 4′-(3-methylaminopropoxy)-3′-(5,5,8,8-tetramethyl-5,6,7,8-tetrahydronaphth-2-yl)biphenyl-4-carboxylate] |  |  |  | 141
8 | CNCCCOc1ccc(-c2ccc(C(=O)O)cc2)cc1-c1ccc2c(c1)C(C)(C)CCC2(C)C [Compound 61, 4′-(3-Methylaminopropoxy)-3′-(5,5,8,8-tetramethyl-5,6,7,8-tetrahydronaphth-2-yl)biphenyl-4-carboxylic acid] |  |  | 30 | 
9 | CCNCCCOc1ccc(-c2ccc(C(=O)OCC)cc2)cc1-c1ccc2c(c1)C(C)(C)CCC2(C)C [Compound 62, Ethyl 4′-(3-ethylaminopropoxy)-3′-(5,5,8,8-tetramethyl-5,6,7,8-tetrahydronaphth-2-yl)biphenyl-4-carboxylate] |  |  |  | 148
10 | CCNCCCOc1ccc(-c2ccc(C(=O)O)cc2)cc1-c1ccc2c(c1)C(C)(C)CCC2(C)C [Compound 63, 4′-(3-Ethylaminopropoxy)-3′-(5,5,8,8-tetramethyl-5,6,7,8-tetrahydronaphth-2-yl)biphenyl-4-carboxylic acid] |  |  | 250 | 
11 | CC1(C)CCC(C)(C)c2cc(-c3cc(-c4ccc(C(=O)O)cc4)ccc3OCCCN)ccc21 [Compound 65, 4′-(3-Aminopropoxy)-3′-(5,5,8,8-tetramethyl-5,6,7,8-tetrahydronaphth-2-yl)biphenyl-4-carboxylic acid] |  |  | 8 | 
12 | CC1(C)CCC(C)(C)c2cc(-c3cc(-c4ccc(C(=O)O)cc4)ccc3OCCNC3CC3)ccc21 [Compound 67, 4′-(2-Cyclopropylaminoethoxy)-3′-(5,5,8,8-tetramethyl-5,6,7,8-tetrahydronaphth-2-yl)biphenyl-4-carboxylic acid] | 1000 | 60 | 4 | 
13 | CC1(C)CCC(C)(C)c2cc(-c3cc(-c4ccc(C(=O)O)cc4)ccc3OCCCCCNC3CC3)ccc21 [Compound 69, 4′-(5-Cyclopropylaminopentyloxy)-3′-(5,5,8,8-tetramethyl-5,6,7,8-tetrahydronaphth-2-yl)biphenyl-4-carboxylic acid] | 2000 | 500 | 250 | 
14 | CC1(C)CCC(C)(C)c2cc(-c3cc(-c4ccc(C(=O)O)cc4)ccc3OCCCCCN)ccc21 [Compound 73, 4′-(5-Aminopentyloxy)-3′-(5,5,8,8-tetramethyl-5,6,7,8-tetrahydronaphth-2-yl)biphenyl-4-carboxylic acid] | 2000 | 2000 | 120 | 
15 | CC1(C)CCC(C)(C)c2cc(-c3cc(-c4ccc(C(=O)O)cc4)ccc3OCCCCN)ccc21 [Compound 75, 4′-(4-Aminobutoxy)-3′-(5,5,8,8-tetramethyl-5,6,7,8-tetrahydronaphth-2-yl)biphenyl-4-carboxylic acid] | 8000 | 2000 | 60 | 
